From EP4745135A1 (Gluetacs Therapeutics (Shanghai) Co., Ltd., priority 2023, dated 2025) come the findings set out here.

By inhibition is commonly meant the drop in the measured response relative to a control, in per cent.

Test [1] concerns the target T1, human Cereblon WT GST-tagged protein (Homo sapiens, UniProt Q96SW2).
T1 construct: purchased CISBIO 64BDCRBNPEH
In words: CRBN-binding affinity, HTRF (CEREBLON BINDING kit). Particulars: CRBN binding, HTRF, 3 hours at room temperature; read-out: HTRF IC50.

The next test deals with T2, CK1α (Homo sapiens, UniProt P48729+Q96SW2).
T2 construct: effects of the compounds of the present disclosure on the expression of target proteins in cells; endogenous in cells; host or cells: human PBMCs (Milecell Biotechnologies)
In words: Western blot, degradation of substrate protein in hPBMCs. The test is classed as cell-based. Particulars: Western blot, 24 hours of compound treatment, compounds tested at 50 nM and 500 nM (concentration for the table not stated). Background: Immunoblotting shows a protein as a band on a membrane.

A further test addresses T3, IKZF1 (Homo sapiens, UniProt Q13422+Q96SW2).
T3 construct: effects of the compounds of the present disclosure on the expression of target proteins in cells; endogenous in cells; host or cells: human PBMCs (Milecell Biotechnologies)
Described as above. It counts as cell-based. Conditions: Western blot, 24 hours of compound treatment, compounds tested at 50 nM and 500 nM (concentration for the table not stated).

Another test deals with T4, IKZF3 (Homo sapiens, UniProt Q96SW2+Q9UKT9).
T4 construct: effects of the compounds of the present disclosure on the expression of target proteins in cells; endogenous in cells; host or cells: human PBMCs (Milecell Biotechnologies)
The test is described as above. It counts as cell-based. Conditions: Western blot, 24 hours of compound treatment, compounds tested at 50 nM and 500 nM (concentration for the table not stated).

For another test, the target named is T5, WEE1 (Homo sapiens, UniProt P30291+Q96SW2).
T5 construct: effects of the compounds of the present disclosure on the expression of target proteins in cells; endogenous in cells; host or cells: human PBMCs (Milecell Biotechnologies)
Described as above. The test is classed as cell-based. Conditions: Western blot, 24 hours of compound treatment, compounds tested at 50 nM and 500 nM (concentration for the table not stated).

The target in a further test is T6, IKZF2 (Homo sapiens, UniProt Q96SW2+Q9UKS7).
T6 construct: effects of the compounds of the present disclosure on the expression of target proteins in cells; endogenous in cells; host or cells: human PBMCs (Milecell Biotechnologies)
Described as above. It counts as cell-based. Conditions: Western blot, 24 hours of compound treatment, compounds tested at 50 nM and 500 nM (concentration for the table not stated).

The subject of test [2] is Human non-small cell lung cancer cell line: NCI-H1975. In words: Tumor cell proliferation inhibition (CellTiter-Meiluncell luminescent cell viability assay). Particulars: NCI-H1975, 96 h, read-out: Inhibitory activity (IC50, nM) on tumor cell proliferation, H1975.
Procedure: (§1) The tumor cells used herein were cultured in a cell culture medium listed in table 2 at 37°C in an incubator with 5% CO2. Prior to experimentation, all cell lines used were correctly identified by STR profiling, and tested negative for mycoplasma contamination using a mycoplasma detection kit through routine screenings.
(§2) The IC50 values of the compounds of the present disclosure (including the compounds in Table 1 and Examples) were determined using the CellTiter-Meiluncell Luminescent Cell Viability Assay Kit from Dalian Meilun Biotech Co., Ltd. The detailed procedure is as follows: Tumor cells were seeded in 96-well cell culture plates at the densities specified in Table 3. On the following day, the test compounds of the present disclosure were subjected to serial dilution. The dilution can be performed according to one of the following two methods: • (1) The first dilution method: The test compounds of the present disclosure (including the compounds in Table 1 and Examples) were subjected to 5-fold serial dilutions starting from a highest concentration of 2000 µM, resulting in a total of 9 concentrations from high to low (2000, 400, 80, 16, 3.2, 0.64, 0.128, 0.0256, 0.00512 µM). Subsequently, 0.5 µL of the test compound dilution was transferred into the 96-well plate containing the cells, with each well containing 100 µL of cell culture medium. […] Into the 96-well plate, the diluted test compounds and corresponding detection reagents were added, resulting in final test compound concentrations of 500 nM and 10 nM, respectively. The experimental procedure is described below using the diluted 2 µM test compound as an example.
(§3) 0.5 µL of the aforementioned diluted compound of the present disclosure (including the compounds in Table 1 and Examples) was added to the seeded cells in 100 µL of medium, yielding a final test compound concentration of 10 nM. After the cells were treated with the compounds of the present disclosure for a specified period, the cell viability assay reagent was added to the culture medium according to the kit's instructions to determine cell viability. […] All controls were treated using the same procedure as the compounds of the present disclosure. The growth inhibition curves for the compounds of the present disclosure were plotted using Prism GraphPad software, and the IC50 values were calculated therefrom.
For test [3], the system named is Human multiple myeloma cell (MM.1S). The description is as above. Conditions: Homo sapiens, MM1.S, 96 h; for IC50: read-out: Inhibitory activity (IC50, nM) on tumor cell proliferation, MM.1S.
Another test relates to GSPT1. Briefly: Western blot, degradation of substrate protein in hPBMCs. The test is classed as cell-based, Human. Conditions: Western blot, 24 hours of compound treatment, compounds tested at 50 nM and 500 nM (concentration for the table not stated).
In test [4] the test system is Human T lymphocytic leukemia cell line: Jurkat. Briefly: Tumor cell proliferation inhibition (CellTiter-Meiluncell luminescent cell viability assay). Conditions: 96 h; for IC50: read-out: Inhibitory activity (IC50, nM) on tumor cell proliferation, Jurkat.
For test [5], the system named is Human mantle cell lymphoma cell line: JEKO-1. The test is described as above. Particulars: JeKo-1, 96 h, read-out: Inhibitory activity (IC50, nM) on tumor cell proliferation, JEKO-1.
Procedure: as §1, §2, §3
Test [6] relates to Human gastric cancer cell line: MGC803. The description is as above. Conditions: MGC-803, read-out: Inhibitory activity (IC50, nM) on tumor cell proliferation, MGC803.
Procedure: as §2, §3
For test [7], the system named is Human myeloid monocytic leukemia cell (MV-4-11). Described as above. Conditions: MV4-11, 96 h.
Procedure: as §1, §2, §3
Test [8] relates to Human T cell acute lymphoblastic leukemia cell (CCRF-CEM). The description is as above. Particulars: 96 h.
The test system of test [9] is Human multiple myeloma peripheral blood B lymphocyte cell (RPMI-8226). The test is described as above. Particulars: RPMI-8226, 96 h, read-out: Inhibition Rate at 500 nM (%).
Procedure: as §1, §2, §3
For test [10], the system named is Human malignant melanoma cell line: A375. The test is described as above. Conditions: A-375, 96 h.
Procedure: as §1, §2, §3
Test [11] concerns Human breast cancer cell (MCF-7). The description is as above. Conditions: MCF7, 96 h, read-out: Inhibition Rate at 10 nM (%).
In test [12] the test system is Human acute T lymphocytic leukemia cell (Molt4). Described as above. Particulars: MOLT-4, 96 h.
The test system of test [13] is Human acute myeloid leukemia cell line: Kasumi-1. Described as above. Conditions: Kasumi 1, 96 h.
Procedure: as §1, §2, §3
For test [14], the system named is Human monocytic leukemia cell line: THP-1. The test is described as above. Conditions: THP-1, 96 h.
Test [15] has as its system Human colon cancer cell line: SW620. The test is described as above. Conditions: SW-620, 96 h.
The mark [16] stands for this setting: read-out: Inhibition Rate at 10 nM (%).
Setting [17] is: read-out: Inhibition Rate at 500 nM (%).

T1 sequence (Q96SW2 whole entry): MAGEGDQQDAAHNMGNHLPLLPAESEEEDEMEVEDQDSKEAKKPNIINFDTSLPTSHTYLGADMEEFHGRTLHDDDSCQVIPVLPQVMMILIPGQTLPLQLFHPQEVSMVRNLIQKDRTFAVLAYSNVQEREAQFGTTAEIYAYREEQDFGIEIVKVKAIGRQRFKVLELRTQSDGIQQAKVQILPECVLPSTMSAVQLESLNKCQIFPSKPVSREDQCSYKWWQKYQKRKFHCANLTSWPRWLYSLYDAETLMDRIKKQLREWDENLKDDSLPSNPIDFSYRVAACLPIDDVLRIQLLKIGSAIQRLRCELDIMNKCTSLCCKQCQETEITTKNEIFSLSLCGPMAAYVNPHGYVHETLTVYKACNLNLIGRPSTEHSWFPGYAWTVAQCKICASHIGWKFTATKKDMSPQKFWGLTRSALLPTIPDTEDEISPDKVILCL
T4 sequence (Q9UKT9 whole entry): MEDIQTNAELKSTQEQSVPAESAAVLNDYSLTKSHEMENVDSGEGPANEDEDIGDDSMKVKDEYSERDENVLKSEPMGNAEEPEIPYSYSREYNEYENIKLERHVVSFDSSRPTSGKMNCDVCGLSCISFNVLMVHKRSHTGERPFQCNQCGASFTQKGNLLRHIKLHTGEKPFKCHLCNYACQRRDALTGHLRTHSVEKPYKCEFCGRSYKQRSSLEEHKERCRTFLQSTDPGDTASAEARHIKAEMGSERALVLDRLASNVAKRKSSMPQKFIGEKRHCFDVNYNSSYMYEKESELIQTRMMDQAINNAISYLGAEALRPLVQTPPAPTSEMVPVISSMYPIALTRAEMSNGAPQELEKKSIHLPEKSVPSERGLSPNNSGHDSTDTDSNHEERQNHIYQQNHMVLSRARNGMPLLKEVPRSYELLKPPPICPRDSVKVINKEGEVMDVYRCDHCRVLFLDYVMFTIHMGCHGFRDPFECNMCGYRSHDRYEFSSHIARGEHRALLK
T4 sequence (Q96SW2 whole entry): as the sequence (Q96SW2 whole entry) above
T4 sequence (Q16531 whole entry partner): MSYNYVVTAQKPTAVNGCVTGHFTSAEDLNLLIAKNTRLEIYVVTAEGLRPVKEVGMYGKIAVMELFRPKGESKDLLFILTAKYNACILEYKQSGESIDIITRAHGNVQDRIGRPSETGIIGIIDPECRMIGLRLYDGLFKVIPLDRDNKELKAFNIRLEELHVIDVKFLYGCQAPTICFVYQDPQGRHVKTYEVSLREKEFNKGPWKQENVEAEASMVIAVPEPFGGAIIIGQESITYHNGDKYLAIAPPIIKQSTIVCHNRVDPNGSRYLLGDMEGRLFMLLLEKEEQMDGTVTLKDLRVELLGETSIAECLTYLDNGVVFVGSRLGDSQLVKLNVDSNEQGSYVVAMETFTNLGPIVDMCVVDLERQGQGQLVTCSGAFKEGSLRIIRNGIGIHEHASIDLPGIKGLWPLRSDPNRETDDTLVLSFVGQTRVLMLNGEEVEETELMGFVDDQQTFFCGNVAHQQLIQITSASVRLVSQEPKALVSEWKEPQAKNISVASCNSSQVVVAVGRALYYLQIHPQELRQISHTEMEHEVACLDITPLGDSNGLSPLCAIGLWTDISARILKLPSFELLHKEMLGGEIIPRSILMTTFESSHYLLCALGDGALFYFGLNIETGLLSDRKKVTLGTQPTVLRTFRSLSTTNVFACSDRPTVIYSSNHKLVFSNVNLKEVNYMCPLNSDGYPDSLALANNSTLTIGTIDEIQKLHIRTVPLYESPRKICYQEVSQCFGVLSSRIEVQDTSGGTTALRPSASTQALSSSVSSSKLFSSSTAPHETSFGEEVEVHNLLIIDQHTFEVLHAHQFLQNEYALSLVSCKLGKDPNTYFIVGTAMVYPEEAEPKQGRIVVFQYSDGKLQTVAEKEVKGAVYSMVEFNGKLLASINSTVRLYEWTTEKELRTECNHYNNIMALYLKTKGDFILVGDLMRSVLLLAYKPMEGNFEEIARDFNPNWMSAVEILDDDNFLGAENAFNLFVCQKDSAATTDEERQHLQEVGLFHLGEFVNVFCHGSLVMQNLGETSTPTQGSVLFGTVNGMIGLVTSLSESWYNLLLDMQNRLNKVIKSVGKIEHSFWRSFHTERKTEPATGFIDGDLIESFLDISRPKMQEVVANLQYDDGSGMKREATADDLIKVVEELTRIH
T5 sequence (P30291 whole entry): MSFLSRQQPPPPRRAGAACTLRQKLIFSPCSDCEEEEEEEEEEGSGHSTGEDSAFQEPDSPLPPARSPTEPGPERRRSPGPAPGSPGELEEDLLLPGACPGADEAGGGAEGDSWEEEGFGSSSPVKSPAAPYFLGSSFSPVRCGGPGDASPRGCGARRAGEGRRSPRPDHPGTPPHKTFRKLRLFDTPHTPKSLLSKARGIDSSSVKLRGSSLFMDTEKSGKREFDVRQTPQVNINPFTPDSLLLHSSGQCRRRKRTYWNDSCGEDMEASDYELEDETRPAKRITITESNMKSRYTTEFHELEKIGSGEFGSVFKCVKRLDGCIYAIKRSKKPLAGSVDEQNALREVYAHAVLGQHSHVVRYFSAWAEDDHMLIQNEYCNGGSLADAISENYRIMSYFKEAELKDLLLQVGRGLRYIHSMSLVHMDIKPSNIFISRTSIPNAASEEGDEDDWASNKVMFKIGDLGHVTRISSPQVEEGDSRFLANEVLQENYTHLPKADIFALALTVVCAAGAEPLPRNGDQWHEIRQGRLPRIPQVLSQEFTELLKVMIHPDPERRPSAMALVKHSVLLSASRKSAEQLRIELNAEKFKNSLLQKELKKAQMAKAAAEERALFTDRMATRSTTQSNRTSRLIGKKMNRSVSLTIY
T5 sequence (Q96SW2 whole entry): as the sequence (Q96SW2 whole entry) above
T5 sequence (Q16531 whole entry partner): as the sequence (Q16531 whole entry partner) above
T2 sequence (P48729 whole entry): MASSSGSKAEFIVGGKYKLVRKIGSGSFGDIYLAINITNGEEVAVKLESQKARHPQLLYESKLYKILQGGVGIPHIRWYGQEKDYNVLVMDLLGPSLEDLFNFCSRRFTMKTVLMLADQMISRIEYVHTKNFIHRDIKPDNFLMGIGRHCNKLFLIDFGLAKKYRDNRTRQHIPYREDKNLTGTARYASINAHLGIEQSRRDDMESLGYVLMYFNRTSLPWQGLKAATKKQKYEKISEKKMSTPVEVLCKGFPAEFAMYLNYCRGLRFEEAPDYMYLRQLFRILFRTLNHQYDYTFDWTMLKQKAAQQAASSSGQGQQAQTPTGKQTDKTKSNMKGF
T2 sequence (Q96SW2 whole entry): as the sequence (Q96SW2 whole entry) above
T2 sequence (Q16531 whole entry partner): as the sequence (Q16531 whole entry partner) above
T3 sequence (Q13422 whole entry): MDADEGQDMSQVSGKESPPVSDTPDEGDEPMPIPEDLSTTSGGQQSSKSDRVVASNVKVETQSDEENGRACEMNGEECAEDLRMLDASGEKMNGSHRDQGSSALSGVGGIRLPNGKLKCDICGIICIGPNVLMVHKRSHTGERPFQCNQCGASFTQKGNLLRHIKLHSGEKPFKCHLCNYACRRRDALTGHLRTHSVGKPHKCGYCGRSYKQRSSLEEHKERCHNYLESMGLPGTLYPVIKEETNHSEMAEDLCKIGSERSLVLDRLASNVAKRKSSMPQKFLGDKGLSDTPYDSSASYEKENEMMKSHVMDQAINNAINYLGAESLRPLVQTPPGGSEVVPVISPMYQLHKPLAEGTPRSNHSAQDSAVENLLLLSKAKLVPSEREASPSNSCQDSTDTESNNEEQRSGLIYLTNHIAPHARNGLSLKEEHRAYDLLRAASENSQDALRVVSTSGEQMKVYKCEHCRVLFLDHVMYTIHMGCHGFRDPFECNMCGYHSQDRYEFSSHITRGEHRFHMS
T3 sequence (Q96SW2 whole entry): as the sequence (Q96SW2 whole entry) above
T3 sequence (Q16531 whole entry partner): as the sequence (Q16531 whole entry partner) above
T6 sequence (Q9UKS7 whole entry): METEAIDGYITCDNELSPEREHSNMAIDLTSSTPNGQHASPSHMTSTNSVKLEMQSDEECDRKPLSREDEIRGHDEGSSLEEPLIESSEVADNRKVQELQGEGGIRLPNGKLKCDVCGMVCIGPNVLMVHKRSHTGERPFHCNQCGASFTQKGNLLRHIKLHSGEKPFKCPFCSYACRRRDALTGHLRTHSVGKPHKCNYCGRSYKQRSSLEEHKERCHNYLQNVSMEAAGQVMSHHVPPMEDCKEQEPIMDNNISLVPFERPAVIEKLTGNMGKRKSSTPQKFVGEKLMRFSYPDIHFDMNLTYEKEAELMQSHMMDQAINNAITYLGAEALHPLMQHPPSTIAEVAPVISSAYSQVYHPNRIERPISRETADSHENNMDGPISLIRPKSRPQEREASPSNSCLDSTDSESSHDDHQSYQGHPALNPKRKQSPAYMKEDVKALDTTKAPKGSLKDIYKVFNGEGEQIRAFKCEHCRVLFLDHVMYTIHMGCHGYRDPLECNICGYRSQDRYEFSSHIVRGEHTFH
T6 sequence (Q96SW2 whole entry): as the sequence (Q96SW2 whole entry) above
T6 sequence (Q16531 whole entry partner): as the sequence (Q16531 whole entry partner) above

On to `Cc1ccc(Sc2ccccc2N2CCN(Cc3ccc4c(c3)C(=S)N(C3CCC(=O)NC3=O)C4)CC2)c(C)c1` (stereo not shown) [GT-05038, 3-(6-((4-(2-((2,4-dimethylphenyl)thio)phenyl)piperazin-1-yl)methyl)-1-thioxoisoindolin-2-yl)piperidine-2,6-dione], for which the IC50 in test [1] fell in the range of 500 to 1000 nM; in test [2], 500 to 1000 nM; in test [3], 100 to 500 nM; in test [4] it was 500 to 1000 nM. At CK1α, the “CK1α substrate protein remaining %” value is reported as “B (80%< substrate protein remaining %≤ 100%)”. For the same compound, the “IKZF 1 substrate protein remaining %” value at IKZF1 was “A (0% ≤ substrate protein remaining % ≤ 80%)”. Besides, the “IKZF3 substrate protein remaining %” value on IKZF3 is “A (0% ≤ substrate protein remaining % ≤ 80%)”. The “Wee1 substrate protein remaining %” value at WEE1 is given as “B (80%< substrate protein remaining %≤ 100%)”. Further, the “IKZF2 substrate protein remaining %” value at IKZF2 was “A (0% ≤ substrate protein remaining % ≤ 80%)”. Besides, the “GSPT1 substrate protein remaining %” value in the test with GSPT1 was “A (0% ≤ substrate protein remaining % ≤ 80%)”.

With `O=C1CCC(N2Cc3cc(CN4CCN(C(c5ccccc5)c5ccccc5)CC4)ccc3C2=S)C(=O)N1` (stereo not shown) [GT-05104, 3-(5-((4-benzhydrylpiperazin-1-yl)methyl)-1-thioxoisoindolin-2-yl)piperidine-2,6-dione], the IC50 is 100 to 500 nM in test [5]; 500 to 1000 nM in [1]; 100 to 500 nM in test [2]; below 5 nM in test [3]; 100 to 500 nM in test [4]; 50 to 100 nM in test [6]. Besides, the “CK1α substrate protein remaining %” value at CK1α is recorded as “B (80%< substrate protein remaining %≤ 100%)”. Further, the “IKZF 1 substrate protein remaining %” value on IKZF1 was “B (80%< substrate protein remaining %≤ 100%)”. Also, the “IKZF3 substrate protein remaining %” value on IKZF3 was “B (80%< substrate protein remaining %≤ 100%)”. The “Wee1 substrate protein remaining %” value at WEE1 is listed as “A (0% ≤ substrate protein remaining % ≤ 80%)”. Further, the “IKZF2 substrate protein remaining %” value at IKZF2 is listed as “B (80%< substrate protein remaining %≤ 100%)”. The “GSPT1 substrate protein remaining %” value in the test with GSPT1 was “A (0% ≤ substrate protein remaining % ≤ 80%)”.

As for `O=C1CCC(N2Cc3cc(CN4CC=C(c5ccco5)CC4)ccc3C2=S)C(=O)N1` (stereo not shown) [GT-05147, 3-(5-((4-(furan-2-yl)-3,6-dihydropyridin-1(2H)-yl)methyl)-1-thioxoisoindolin-2-yl)piperidine-2,6-dione], the IC50 in [5] was 100 to 500 nM; in test [1], below 100 nM; in test [3], 10 to 50 nM; in [4] it was 100 to 500 nM. Also, the “CK1α substrate protein remaining %” value on CK1α was “B (80%< substrate protein remaining %≤ 100%)”. Besides, on IKZF1, the “IKZF 1 substrate protein remaining %” value is “A (0% ≤ substrate protein remaining % ≤ 80%)”. In addition, the “IKZF3 substrate protein remaining %” value at IKZF3 was “A (0% ≤ substrate protein remaining % ≤ 80%)”. Also, on WEE1, the “Wee1 substrate protein remaining %” value was “A (0% ≤ substrate protein remaining % ≤ 80%)”. Moreover, on IKZF2, the “IKZF2 substrate protein remaining %” value was “A (0% ≤ substrate protein remaining % ≤ 80%)”. For the same compound, the “GSPT1 substrate protein remaining %” value in the test on GSPT1 is “A (0% ≤ substrate protein remaining % ≤ 80%)”.

Take `Nc1cccc2c1CN(C1CCC(=O)NC1=O)C2=O` (stereo not shown) [lenalidomide, reference compound]: the inhibition at 0.01 µM lay in the range of 10 to 18% in test [7] (setting [16]); 10 to 20% in test [8] (setting [16]); 5 to 10% in [10] (setting [16]); 0 to 5% in test [11]; 0 to 5% in test [12] (setting [16]); 10 to 20% in test [3] (setting [16]). Besides, the inhibition at 0.01 µM in test [13] (setting [16]) is 5 to 10%; in test [4] (setting [16]), 20 to 30%; in test [14] (setting [16]) it was 0 to 5%; in test [15] (setting [16]), 5 to 10%. For the same compound, the inhibition at 0.5 µM fell in the range of 10 to 18% in test [7] (setting [17]); 10 to 20% in test [8] (setting [17]); 10 to 20% in test [9]; 5 to 10% in test [10] (setting [17]); 0 to 5% in test [12] (setting [17]); 30 to 40% in test [3] (setting [17]). In addition, the inhibition at 0.5 µM is 0 to 5% in test [13] (setting [17]), 10 to 20% in test [4] (setting [17]), 5 to 10% in [14] (setting [17]) and 5 to 10% in [15] (setting [17]).
